One assay has as its target T1, 12-LOX (Homo sapiens, UniProt P18054).
T1 sequence (P18054 1-663): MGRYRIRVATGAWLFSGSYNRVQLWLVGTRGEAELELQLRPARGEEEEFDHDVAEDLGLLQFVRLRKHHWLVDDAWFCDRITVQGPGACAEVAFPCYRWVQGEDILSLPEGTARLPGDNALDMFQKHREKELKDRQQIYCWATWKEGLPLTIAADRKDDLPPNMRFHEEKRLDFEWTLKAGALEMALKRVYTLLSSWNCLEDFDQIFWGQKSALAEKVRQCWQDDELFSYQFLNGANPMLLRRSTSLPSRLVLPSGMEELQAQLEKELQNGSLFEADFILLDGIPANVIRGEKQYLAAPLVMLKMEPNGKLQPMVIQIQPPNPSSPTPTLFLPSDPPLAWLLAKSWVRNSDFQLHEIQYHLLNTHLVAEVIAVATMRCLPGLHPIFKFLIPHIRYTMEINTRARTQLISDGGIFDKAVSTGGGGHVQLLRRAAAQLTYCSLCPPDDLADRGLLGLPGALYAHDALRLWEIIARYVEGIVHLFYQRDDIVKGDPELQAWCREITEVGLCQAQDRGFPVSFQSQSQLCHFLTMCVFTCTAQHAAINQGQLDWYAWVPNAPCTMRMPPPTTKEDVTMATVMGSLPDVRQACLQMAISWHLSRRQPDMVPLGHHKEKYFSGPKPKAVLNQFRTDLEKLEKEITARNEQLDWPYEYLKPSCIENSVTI
The assay is described as follows: 12-LOX fluorescent assay (in vitro lipoxygenase inhibition). The class given is biochemical. Summed up:
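Fluorescent assay in 50 mM Tris pH 7.5, 0.05% Tween-20, with 100 nM recombinant 12-LOX preincubated 15 min with inhibitor. Reaction was started with 20 μM arachidonic acid substrate and 1 μM DHR123. Percent inhibition per dose was fitted by 4-parameter logistic or sigmoidal dose-response for IC50.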

A further assay concerns the target T2, 5-LOX (Homo sapiens, UniProt P09917).
T2 sequence (P09917 1-674): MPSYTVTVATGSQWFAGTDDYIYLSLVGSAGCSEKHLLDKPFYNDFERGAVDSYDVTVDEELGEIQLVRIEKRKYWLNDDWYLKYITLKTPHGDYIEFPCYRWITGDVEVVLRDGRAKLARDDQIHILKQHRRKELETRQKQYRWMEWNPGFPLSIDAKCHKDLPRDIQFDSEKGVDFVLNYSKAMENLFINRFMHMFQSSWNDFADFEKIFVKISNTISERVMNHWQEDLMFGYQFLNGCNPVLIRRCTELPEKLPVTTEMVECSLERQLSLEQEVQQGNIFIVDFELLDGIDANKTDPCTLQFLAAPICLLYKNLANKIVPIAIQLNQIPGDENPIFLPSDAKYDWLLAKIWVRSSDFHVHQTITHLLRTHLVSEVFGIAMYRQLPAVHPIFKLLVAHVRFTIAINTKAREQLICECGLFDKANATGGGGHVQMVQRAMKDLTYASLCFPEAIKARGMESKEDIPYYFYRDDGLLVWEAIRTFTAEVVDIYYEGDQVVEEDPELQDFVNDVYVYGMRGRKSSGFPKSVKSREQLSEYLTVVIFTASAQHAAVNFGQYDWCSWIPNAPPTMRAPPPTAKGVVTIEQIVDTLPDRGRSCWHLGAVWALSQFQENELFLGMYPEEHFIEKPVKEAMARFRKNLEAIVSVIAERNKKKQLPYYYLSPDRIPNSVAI
The assay is described as follows: 5-LOX fluorescent assay (in vitro lipoxygenase inhibition). The class given is biochemical. As to conditions: recombinant 5-LOX cell lysate, 20 μM AA, DHR123 fluorescence; several values in a cell = repeat determinations; read-out: IC50 (μM) values for in vitro lipoxygenase inhibition, 5-LOX. The method in brief: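 Recombinant human 5-LOX cell lysate pre-incubated 15 min with inhibitor in 50 mM Tris pH 7.5, 0.1 mM EDTA, 0.3 mM CaCl2. Reaction started with 20 μM arachidonic acid plus 100 μM ATP, with 1 μM DHR123 as fluorescent probe. IC50 from percent inhibition per dose via 4-parameter logistic or sigmoidal dose-response fit.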

The mark [1] stands for this setting: 100 nM recombinant 12-LOX, 20 μM AA, DHR123 fluorescence, several values in a cell = repeat determinations, read-out: IC50 (μM) values for in vitro lipoxygenase inhibition, 12-LOX.

24 compounds from patent publication US20230117592A1 (SRI International, priority 2019, published 2023) can be followed below.

Structures are written as SMILES. Where “and” joins values, the source holds several entries; their conditions need not be identical. Identical values can stand only once. Like-named read-outs stand apart in the source and are kept apart here.

For orientation: IC50 means the midpoint of a concentration-inhibition curve. As to `c1ncn(CCCNc2ccc(NC3CCCCC3)cc2)n1` [SS20308-0239-01, N^1-(3-(1H-1,2,4-triazol-1-yl)propyl)-N^4-cyclohexylbenzene-1,4-diamine], the IC50 on 12-LOX is 0.03 µM; at 5-LOX, 0.04 µM and 0.07 µM.
Consider `FC(F)(F)c1cc(Nc2ccc(Cl)cc2)ccc1NCC1(Cn2cncn2)COC1` [SS20308-0322-01, N^1-((3-((1H-1,2,4-triazol-1-yl)methyl)oxetan-3-yl)methyl)-N^4-(4-chlorophenyl)-2-(trifluoromethyl)benzene-1,4-diamine], for which the IC50 at 12-LOX (setting [1]) and at 5-LOX was 0.05 µM in each case.
For the compound `c1ccc(Nc2ccc(C3CCCO3)c(NCCn3cncn3)c2)cc1` (stereo not drawn) [SS20308-0195-01, N^3-(2-(1H-1,2,4-triazol-1-yl)ethyl)-N^1-phenyl-4-(tetrahydrofuran-2-yl)benzene-1,3-diamine], the IC50 came to 0.36 µM on 12-LOX (setting [1]) and 0.76 µM at 5-LOX.
`CN(C)CCCc1c(Nc2ccccc2)cccc1-c1cccc2c1NCC2` [SS20308-0172-01, 2-(3-(dimethylamino)propyl)-3-(indolin-7-yl)-N-phenylaniline]: the results for the IC50 on 12-LOX (setting [1]) and at 5-LOX were 0.36 µM and 0.23 µM, respectively.
For `Cc1cc(Nc2ccc(Cl)c(F)c2)ccc1NCC1(Cn2cncn2)COC1` [SS20308-0308-01, N^1-((3-((1H-1,2,4-triazol-1-yl)methyl)oxetan-3-yl)methyl)-N^4-(4-chloro-3-fluorophenyl)-2-methylbenzene-1,4-diamine], the IC50 at 12-LOX (setting [1]) is 20 nM (2×) and 50 nM and 60 nM; on 5-LOX, 0.04 µM and 0.03 µM and 0.05 µM and 0.09 µM.
`O=C(Nc1ccc(NCCn2cncn2)c(-c2ccccc2)c1)c1ccccc1` [SS20308-0146-01, N-(6-((2-(1H-1,2,4-triazol-1-yl)ethyl)amino)-[1,1′-biphenyl]-3-yl)benzamide]: the 50% inhibitory concentration (IC50) was 4.02 µM on 12-LOX (setting [1]) and 3.77 µM on 5-LOX.
For the compound `c1ccc(Nc2ccc(-c3ccn[nH]3)c(NCCn3cncn3)c2)cc1` [SS20308-0189-01, N^3-(2-(1H-1,2,4-triazol-1-yl)ethyl)-N^1-phenyl-4-(1H-pyrazol-5-yl)benzene-1,3-diamine], the IC50 on 12-LOX (setting [1]) is 0.08 µM and 0.15 µM; at 5-LOX, 0.17 µM and 0.28 µM.
Turning to `COc1ccc(CNc2cccc(N)c2OCCN(C)C)cc1` [SS20308-0025-01, 2-(2-(dimethylamino)ethoxy)-N^1-(4-methoxybenzyl)benzene-1,3-diamine], the IC50 at 12-LOX (setting [1]) was 1.29 µM; on 5-LOX, 7.31 µM.
With `c1ncn(CCCNc2ccc(NCC3CCCCC3)cc2)n1` [SS20308-0240-01, N^1-(3-(1H-1,2,4-triazol-1-yl)propyl)-N^4-(cyclohexylmethyl)benzene-1,4-diamine], the 50% inhibitory concentration (IC50) at 12-LOX (setting [1]) is 0.01 µM; on 5-LOX it was 0.02 µM and 0.03 µM.
For the compound `Fc1ccc(Nc2ccc(-c3ccccc3)c(NCCn3cncn3)c2)cc1` [SS20308-0142-01, N^2-(2-(1H-1,2,4-triazol-1-yl)ethyl)-N^4-(4-fluorophenyl)biphenyl-2,4-diamine], the IC50 on 12-LOX (setting [1]) is 0.09 µM and 0.17 µM; on 5-LOX, 0.18 µM and 0.34 µM.
In the case of `FC(F)(F)c1cc(NC2(c3ccccc3)COC2)ccc1NCCN1CCOCC1` [SS20308-0317-01, N^1-(2-morpholinoethyl)-N^4-(3-phenyloxetan-3-yl)-2-(trifluoromethyl)benzene-1,4-diamine], the 50% inhibitory concentration (IC50) at 12-LOX (setting [1]) was determined as 0.32 µM; on 5-LOX, 0.57 µM.
Regarding `Fc1ccc(CNc2ccc(NCCn3cncn3)cn2)cc1` [SS20308-0246-01, N^5-(2-(1H-1,2,4-triazol-1-yl)ethyl)-N^2-(4-fluorobenzyl)pyridine-2,5-diamine], the concentration for half-maximal inhibition (IC50) was found to be 0.08 µM at 12-LOX (setting [1]) and 0.51 µM at 5-LOX.
For the compound `OCCc1ccccc1-c1ccc(Nc2ccccc2)cc1NCCn1cncn1` [SS20308-0149-01, 2-(2′-(2-(1H-1,2,4-triazol-1-yl)ethylamino)-4′-(phenylamino)biphenyl-2-yl)ethanol], the IC50 came to 0.3 µM at 12-LOX (setting [1]) and 0.63 µM on 5-LOX.
Turning to `c1ccc(Nc2ccc(-c3ccccc3)c(NCCn3cncn3)c2)cc1` [SS20308-0095-01, N^2-(2-(1H-1,2,4-triazol-1-yl)ethyl)-N^4-phenylbiphenyl-2,4-diamine], the figures for the half-maximal inhibitory concentration (IC50) against 12-LOX and at 5-LOX were 0.18 µM and 0.35 µM, respectively.
`FC(F)(F)C(Nc1ccc(NCCn2cncn2)cn1)c1ccccc1` (stereo not drawn) [SS20308-0245-01, N^5-(2-(1H-1,2,4-triazol-1-yl)ethyl)-N^2-(2,2,2-trifluoro-1-phenylethyl)pyridine-2,5-diamine]: the values for the concentration for half-maximal inhibition (IC50) at 12-LOX (setting [1]) and on 5-LOX were 0.51 µM and 1.19 µM, respectively.
With `FC1(F)CCC(Nc2ccc(NCC3(Cn4cncn4)COC3)cc2)CC1` [SS20308-0263-01, N^1-((3-((1H-1,2,4-triazol-1-yl)methyl)oxetan-3-yl)methyl)-N^4-(4,4-difluorocyclohexyl) benzene-1,4-diamine], the IC50 at 12-LOX (setting [1]) was 0.06 µM and 0.03 µM; on 5-LOX it was 0.22 µM and 0.12 µM.
In the case of `Fc1ccc(Nc2ccc(NCC3(Cn4cncn4)COC3)c(C(F)(F)F)c2)cc1` [SS20308-0296-01, N^1-((3-((1H-1,2,4-triazol-1-yl)methyl)oxetan-3-yl)methyl)-N^4-(4-fluorophenyl)-2-(trifluoromethyl)benzene-1,4-diamine], the IC50 on 12-LOX (setting [1]) was 0.06 µM; on 5-LOX, 0.08 µM.
For the compound `Cc1cc(Nc2ccc(Cl)c(F)c2)ccc1NCC1(CN2CCCC2)COC1` [SS20308-0324-01, N^4-(4-chloro-3-fluorophenyl)-2-methyl-N^1-((3-(pyrrolidin-1-ylmethyl)oxetan-3-yl)methyl)benzene-1,4-diamine], the concentration for half-maximal inhibition (IC50) on 12-LOX (setting [1]) was 0.03 µM; on 5-LOX, 0.15 µM and 0.44 µM.
Take `Fc1ccc(CNc2cc(-c3ccccc3)c(NCCn3cncn3)cc2F)cc1` [SS20308-0229-01, N2-(2-(1H-1,2,4-triazol-1-yl)ethyl)-4-fluoro-N5-(4-fluorobenzyl)-[1,1′-biphenyl]-2,5-diamine]: the half-inhibitory concentration (IC50) at 12-LOX (setting [1]) was 0.02 µM; on 5-LOX it was 0.08 µM and 0.26 µM.
As for `Fc1ccc(Nc2ccc(NCCCN3CCOCC3)c(C(F)(F)F)c2)cc1` [SS20308-0316-01, N^4-(4-fluorophenyl)-N^1-(3-morpholinopropyl)-2-(trifluoromethyl)benzene-1,4-diamine], the concentration for half-maximal inhibition (IC50) turned out to be 0.03 µM on 12-LOX (setting [1]) and 0.07 µM at 5-LOX.
The matching figures for `O=C(Nc1ccc(-c2ccccc2)c(NCCn2cncn2)c1)c1ccccc1` [SS20308-0135-01, N-(2-((2-(1H-1,2,4-triazol-1-yl)ethyl)amino)-[1,1′-biphenyl]-4-yl)benzamide]: 20.8 µM and 25.7 µM.
For `Fc1ccc(C(Nc2ccc(NCCn3cncn3)cc2)C(F)(F)F)cc1` (stereo not drawn) [SS20308-0232-01, N^1-(2-(1H-1,2,4-triazol-1-yl)ethyl)-N^4-(2,2,2-trifluoro-1-(4-fluorophenyl)ethyl)benzene-1,4-diamine], the IC50 on 12-LOX (setting [1]) is 0.14 µM; at 5-LOX, 0.69 µM.
As to `CN(C)CCCNc1ccc(NC(c2ccccc2)C(F)(F)F)cc1F` (stereo not drawn) [SS20308-0302-01, N^1-(3-(dimethylamino)propyl)-2-fluoro-N^4-(2,2,2-trifluoro-1-phenylethyl)benzene-1,4-diamine], the 50% inhibitory concentration (IC50) on 12-LOX (setting [1]) amounted to 0.21 µM; at 5-LOX, 0.25 µM.
Regarding `Cc1cc(Nc2ccc(F)cc2Cl)ccc1NCC1(CN2CCOCC2)COC1` [SS20308-0309-01, N^4-(2-chloro-4-fluorophenyl)-2-methyl-N^1-((3-(morpholinomethyl)oxetan-3-yl)methyl) benzene-1,4-diamine], the half-maximal inhibitory concentration (IC50) is 0.04 µM and 0.08 µM at 12-LOX (setting [1]); 0.09 µM and 0.12 µM at 5-LOX.
